# Assay results taken from paper PMC5609127 (ACS Chemical Neuroscience, 2017).
# What was measured:
# RXRα–RXRα homodimer = molecular target: T1, RXRα–RXRα homodimer (Homo sapiens, UniProt P19793); experiment: BRET2 homodimerization assay
# T1 sequence (P19793 1-462) 1: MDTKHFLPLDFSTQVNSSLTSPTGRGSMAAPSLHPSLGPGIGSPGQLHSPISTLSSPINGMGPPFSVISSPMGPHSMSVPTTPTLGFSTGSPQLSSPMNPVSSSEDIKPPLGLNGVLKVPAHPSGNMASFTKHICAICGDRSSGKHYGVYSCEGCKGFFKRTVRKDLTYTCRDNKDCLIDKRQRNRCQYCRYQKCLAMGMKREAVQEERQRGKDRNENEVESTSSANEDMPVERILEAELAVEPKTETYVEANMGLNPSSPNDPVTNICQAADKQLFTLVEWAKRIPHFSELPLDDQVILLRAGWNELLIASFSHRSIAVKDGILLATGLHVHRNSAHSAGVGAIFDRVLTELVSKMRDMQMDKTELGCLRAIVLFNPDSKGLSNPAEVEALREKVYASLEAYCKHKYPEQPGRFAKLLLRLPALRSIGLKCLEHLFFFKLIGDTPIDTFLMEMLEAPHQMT
# T1 sequence (P19793 1-462) 2: T1 sequence (P19793 1-462) 1
# RXRα–NURR1 heterodimer = RXRα–NURR1 heterodimer (Homo sapiens, UniProt P19793); experiment: BRET2 heterodimerization assay; settings: for NURR1–RXRα vs RXRα–RXRα selectivity: BRET2 potency ratio heterodimer vs homodimer
# RXRα–NURR1 heterodimer, sequence (P43354 whole entry partner, one chain of several): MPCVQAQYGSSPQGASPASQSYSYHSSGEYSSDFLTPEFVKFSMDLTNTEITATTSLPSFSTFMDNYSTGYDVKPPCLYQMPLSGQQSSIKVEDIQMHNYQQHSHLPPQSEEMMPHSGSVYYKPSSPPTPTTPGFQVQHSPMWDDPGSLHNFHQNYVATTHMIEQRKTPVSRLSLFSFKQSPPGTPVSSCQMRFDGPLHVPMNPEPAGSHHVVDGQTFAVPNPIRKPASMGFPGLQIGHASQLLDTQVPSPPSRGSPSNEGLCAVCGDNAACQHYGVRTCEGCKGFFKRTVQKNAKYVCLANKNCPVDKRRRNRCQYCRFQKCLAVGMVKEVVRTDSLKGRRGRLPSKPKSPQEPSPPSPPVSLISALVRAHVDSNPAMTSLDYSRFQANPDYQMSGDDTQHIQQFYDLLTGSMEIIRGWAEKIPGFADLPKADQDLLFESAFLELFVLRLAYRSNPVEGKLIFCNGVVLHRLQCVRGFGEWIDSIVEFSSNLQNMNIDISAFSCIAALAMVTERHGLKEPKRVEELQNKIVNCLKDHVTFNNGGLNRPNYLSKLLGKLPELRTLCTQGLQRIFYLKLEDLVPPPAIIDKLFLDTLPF
# RXRα [1] = molecular target: T2, RXRα (Homo sapiens, UniProt P19793); experiment: Fluorescence polarization; format: biochemical; settings: for agonist character in FP assay: agonist format
# T2 sequence (P19793 227-458 limits assumed): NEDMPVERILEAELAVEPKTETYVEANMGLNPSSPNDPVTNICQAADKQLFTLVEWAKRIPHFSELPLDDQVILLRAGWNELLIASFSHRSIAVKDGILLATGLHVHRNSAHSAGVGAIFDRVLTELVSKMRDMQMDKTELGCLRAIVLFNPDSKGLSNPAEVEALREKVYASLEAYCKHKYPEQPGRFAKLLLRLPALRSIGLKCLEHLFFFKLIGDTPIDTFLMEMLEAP
# RXRα [2] = molecular target: T3, RXRα (Homo sapiens, UniProt P19793); experiment: Mammalian two-hybrid; format: cell-based; settings: for agonist character in M2H assay: agonist format
# T3 sequence (P19793 1-462): T1 sequence (P19793 1-462) 1
# RXRα [3] = molecular target: T3, RXRα; experiment: M2H luciferase competition assay against LG100268; format: cell-based; settings: ligand in the 10–40 μM range after stimulation with LG100268 (10 nM)
# RXRα [4] = molecular target: T2, RXRα; experiment: Fluorescence polarization competition assay against LG100268; format: biochemical; settings: for antagonist character in FP competition assay: competition against LG100268 (50 nM)
# [5] = FP/EC50, His6-RXRα-LBD 1 μM, fluorescein-labeled D22 coactivator peptide 0.1 μM
EC50 (RXRα–RXRα homodimer),EC50 (RXRα–NURR1 heterodimer),NURR1–RXRα vs RXRα–RXRα selectivity (RXRα–NURR1 heterodimer),EC50 (RXRα [1]; [5]),EC50 (RXRα [2]),agonist character in FP assay (RXRα [1]),EC50 (RXRα [1]; potency range in FP assay),agonist character in M2H assay (RXRα [2]),bias toward RXRα homodimers over RXRα–NURR1 heterodimers (factor) (RXRα–RXRα homodimer; BRET2),effect in M2H competition assay (RXRα [3]),IC50 (RXRα [4]),antagonist character in FP competition assay (RXRα [4]),activity in BRET2 assay (RXRα–RXRα) (RXRα–RXRα homodimer),activity in BRET2 assay (RXRα–NURR1) (RXRα–NURR1 heterodimer),Compound
0.0316 µM,0.0794 µM,0.4 fold,1.02 ± 0.06 µM,–,full agonism,1 to 10 µM,full agonism,–,–,–,–,–,–,"Cc1ccc(-c2ccccc2)cc1-c1cc(/C=C/C(=O)O)ccc1O [ligand 7, (E)-3-(6-Hydroxy-6′-methyl-[1,1′:3′,1″-terphenyl]-3-yl)acrylic Acid]"
0.02 µM,0.158 µM,0.1 fold,–,–,partial agonism,–,–,10,clear decrease in luciferase expression,48.5 ± 4.6 µM,partial antagonism,–,–,"C=CCc1ccc(OCCC)c(-c2cc(/C=C/C(=O)O)ccc2O)c1 [ligand 9, (E)-3-(5′-Allyl-6-hydroxy-2′-propoxy-[1,1′-biphenyl]-3-yl)acrylic Acid]"
> 10 µM,> 10 µM,–,–,–,–,–,–,–,clear decrease in luciferase expression,46.9 ± 5.9 µM,full antagonism,did not show appreciable activity,did not show appreciable activity,"C=CCc1ccc(OCCCCCC)c(-c2cc(/C=C/C(=O)O)ccc2O)c1 [ligand 10, (E)-3-(5′-Allyl-2′-(hexyloxy)-6-hydroxy-[1,1′-biphenyl]-3-yl)acrylic Acid]"

# More lines, now with the values behind:
Compound,EC50 (RXRα–RXRα homodimer),EC50 (RXRα–NURR1 heterodimer),NURR1–RXRα vs RXRα–RXRα selectivity (RXRα–NURR1 heterodimer),EC50 (RXRα [1]; [5]),EC50 (RXRα [2]),agonist character in FP assay (RXRα [1]),EC50 (RXRα [1]; potency range in FP assay),agonist character in M2H assay (RXRα [2]),bias toward RXRα homodimers over RXRα–NURR1 heterodimers (factor) (RXRα–RXRα homodimer; BRET2),effect in M2H competition assay (RXRα [3]),IC50 (RXRα [4]),antagonist character in FP competition assay (RXRα [4]),activity in BRET2 assay (RXRα–RXRα) (RXRα–RXRα homodimer),activity in BRET2 assay (RXRα–NURR1) (RXRα–NURR1 heterodimer)
"O=C(O)/C=C/c1ccc(O)c(-c2cccc(-c3ccccc3)c2)c1 [ligand 2, (E)-3-(6-Hydroxy-[1,1′:3′,1″-terphenyl]-3-yl)acrylic Acid]",0.0316 µM,0.00316 µM,10 fold,0.14 ± 0.023 µM,0.085 ± 0.009 µM,–,–,–,–,–,–,–,–,–
"O=C(O)/C=C/c1ccc(O)c(-c2cccc(Cc3ccccc3)c2)c1 [ligand 3, (E)-3-(3′-Benzyl-6-hydroxy-[1,1′-biphenyl]-3-yl)acrylic Acid]",0.02 µM,0.00251 µM,8 fold,0.142 ± 0.009 µM,0.092 ± 0.036 µM,–,–,–,–,–,–,–,–,–
"CC(C)c1cccc(-c2cc(/C=C/C(=O)O)ccc2O)c1 [ligand 4, (E)-3-(6-Hydroxy-3′-isopropyl-[1,1′-biphenyl]-3-yl)acrylic Acid]",–,0.000794 µM,25 fold,0.089 ± 0.007 µM,0.0058 ± 0.0018 µM,–,–,–,–,–,–,–,–,–
"CCCc1cccc(-c2cc(/C=C/C(=O)O)ccc2O)c1 [ligand 5, (E)-3-(6-Hydroxy-3′-propyl-[1,1′-biphenyl]-3-yl)acrylic Acid]",0.1 µM,0.00501 µM,20 fold,0.17 ± 0.08 µM,0.018 ± 0.01 µM,–,–,–,–,–,–,–,–,–
"Cc1c(-c2ccccc2)cccc1-c1cc(/C=C/C(=O)O)ccc1O [ligand 6, (E)-3-(6-Hydroxy-2′-methyl-[1,1′:3′,1″-terphenyl]-3-yl)acrylic Acid]",0.158 µM,0.794 µM,0.2 fold,9.9 ± 2.5 µM,> 2.5 µM,full agonism,1 to 10 µM,full agonism,–,–,–,–,–,–
